Results on 20 compounds are retold here after patent US9499493B2, “2,4-pyrimidinediamine compounds and their uses” (Rigel Pharmaceuticals, Inc., priority 2002, dated 2016).

The subject of assay [1] is IgE-induced degranulation of tissue mast cells. Description: Mouse model of passive cutaneous anaphylaxis (PCA). Conditions: for % Inhibition (PCA): PO, 67% PEG/33% citrate buffer, pretreatment 15 min; for PCA response, positive controls (in words): mouse, in vivo. It is filed as in vivo. As for the experimental part: This model provides a direct measure of IgE-induced degranulation of tissue mast cells. In this model, IgE primed animals are exposed to an allergen challenge, and the change in permeability of dermal vasculature that results from histamine release from mast cells is measured by change in the amount of dye leakage into surrounding tissue. Inhibition of mediator release by compounds that modulate mast cell degranulation is easily measured by extracting the dye from the tissue.
In the PCA assay mice are passively sensitized by intradermal injection with anti-dinitrophenol (DNP) IgE antibodies (Day −1). At predetermined times animals are treated with the test agent (Day 0). The modulatory effect of the agent on cutaneous mast cell degranulation is measured following intravenous injection of DNP conjugated to human serum albumin (HSA-DNP), together with Evans blue dye. The resulting cross-linking of the IgE receptor and subsequent mast cell degranulation-induced increase in vascular permeability is determined by measuring the amount of dye extravasation into the tissue. Dye is extracted from the tissue by formamide, and the absorbance of this extract is read at 620 nm.

The test system of assay [2] is cultured human mast cells (CHMC). Description: CHMC low cell density ionomycin activation: tryptase assay. Format: cell-based.
For assay [3], the system named is bone marrow derived mast cells (BMMC). As to the kind of experiment: BMMC high cell density IgE activation: hexosaminidase. It is filed as cell-based, mouse. To be noted: anti-IgE, second part of TABLE 1, read-out: BMMC anti-IgE hexos. IC50. As for the experimental part:
(§1) After sensitizing, cells are counted, pelleted (1000 rpm, 5-10 minutes), and resuspended at 1-3×10^6 cells/ml in MT buffer. Add 100 ul of cell suspension to each well and 100 ul of compound dilutions. The final vehicle concentration is 0.5% DMSO. Incubate at 37° C. (5% CO2) for 1 hour. After 1 hour of compound treatment, stimulate cells with 6× stimulus (60 ng/ml DNP-BSA). Mix wells with the cells and allow plates to incubate at 37° C. (5% CO2) for one hour. After 1 hour incubation, pellet cells (10 minutes, 1000 RPM) and collect 200 ul per well of the supernatant, being careful not to disturb pellet, and transfer to a clean tube or 96-well plate. Place the supernatant plate on ice. During the 4-5 hour step (see next) perform the hexosiminidase assay. Resuspend cell pellet in 240 ul WEI-conditioned media containing 0.5% DMSO and corresponding concentration of compound. Incubate BMMC cells for 4-5 hours at 37° C. (5% CO2). After incubation, pellet cells (1000 RPM, 10 minutes) and collect 225 ul per well and place in −80° C. until ready to perform ELISAS. ELISAS are performed on appropriately diluted samples (determined empirically for each donor cell population so that the sample measurement falls within the standard curve) following the supplier's instructions.
Hexosaminidase assay: In a solid black 96-well assay plate, add 50 uL hexosaminidase substrate (4-methylumbelliferyl-N-acetyl-(3-D-glucosaminide; 2 mM) to each well. Add 50 uL of BMMC cell supernatant (see above) to the hexoseaminidase substrate, place at 37° C. for 30 minutes and read the plate at 5, 10, 15, and 30 minutes on a spectrophotometer.

Assay [4] deals with cultured human mast cells (CHMC). Description: CHMC low cell density IgE activation: tryptase assay. It is filed as cell-based. Conditions: anti-IgE. An outline of the steps: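 Read-out: tryptase released into supernatant, measured by substrate turnover over 30 min at RT. Low-density CHMC (1000-1500 cells/well, per donor degranulation activity) in MT buffer, 1 hr at 37° C, then anti-IgE challenge 30 min at 37° C.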

Assay [5] concerns bone marrow derived mast cells (BMMC). As to the kind of experiment: BMMC high cell density IgE activation: IL-6. It is filed as cell-based, mouse. To be noted: anti-IgE, second part of TABLE 1. As to the method: (§2) Inhibition of degranulation was measured at both low and high cell density by quantifying the release of the granule specific factors tryptase, histamine and hexosaminidase. Inhibition of release and/or synthesis of lipid mediators was assessed by measuring the release of leukotriene LTC4 and inhibition of release and/or synthesis of cytokines was monitored by quantifying TNF-α, IL-6 and IL-13. Tryptase and hexosaminidase were quantified using fluorogenic substrates as described in their respective examples. […] The protocols of the various assays are provided below.
as §1

For assay [6] the test system is unchanged. Description: BMMC high cell density IgE activation: LTC4. It is filed as cell-based, mouse. To be noted: anti-IgE, second part of TABLE 1. As for the experimental part: as §2, §1
For assay [7] the test system is unchanged. Description: BMMC high cell density IgE activation: histamine. It is filed as cell-based, mouse. To be noted: anti-IgE, second part of TABLE 1. As to the method:
as §2, §1

For assay [8] the test system is unchanged. Description: BMMC high cell density IgE activation: TNFalpha. Format: cell-based, mouse. To be noted: anti-IgE, second part of TABLE 1, read-out: BMMC anti-IgE TNF-alpha IC50. As to the method:
as §2, §1

Bounds are passed on as bounds.

For the compound `Fc1cnc(Nc2ccc3c(c2)OCCO3)nc1Nc1ccc2c(c1)OCCO2` [R926109, N2,N4-Bis(3,4-ethylenedioxyphenyl)-5-fluoro-2,4-pyrimidinediamine], the “% Inhibition (PCA)” value is recorded as 22% in assay [1] (50 mg/kg), 32% in assay [1] (100 mg/kg) and 48% in assay [1] (200 mg/kg). Moreover, the “FcεR-mediated vascular leakage with increasing doses (in words)” value in assay [1] (solution (67% PEG/33% citrate buffer) or aqueous suspension (1.5% Avicel)) was “dose-dependent inhibition”.
With `CN1CCC(=C2c3ccccc3C=Cc3ccccc32)CC1` [cyproheptadine, reference compound], in assay [1] (8 mg/kg, i.p., 30 minutes pretreatment time, n=23 experiments), the “inhibition of the PCA response” value was found to be 61%. Moreover, the “PCA response, positive controls (in words)” value in assay [1] is reported as “inhibit the PCA response”.
As for `CN(C)CCOC(c1ccccc1)c1ccccc1` [diphenhydramine, reference compound], the “PCA response, positive controls (in words)” value in assay [1] is on record as “inhibit the PCA response”.
Turning to `CCOC(=O)COc1ccc(Nc2ncc(F)c(Nc3ccc4c(c3)OCCO4)n2)cc1` [R925747, N2-(4-Ethoxycarbonylmethyleneoxyphenyl)-N4-(3,4-ethylenedioxyphenyl)-5-fluoro-2,4-pyrimidinediamine], the IC50 (usually the concentration that gives 50% inhibition) in assay [2] was 3100 nM; in assay [3] it was 3100 nM; in assay [4], 1020 nM.
Consider `CC(C)c1cccc(Nc2nc(Nc3cccc(OCC(=O)NCC(O)CO)c3)ncc2F)c1` (stereo not drawn) [R940290, N2-[3-(N-2,3-Dihydroxypropylamino)carbonylmethyleneoxyphenyl]-5-fluoro-N4-(3-isopropylphenyl)-2,4-pyrimidinediamine], for which the IC50 in assay [2] is above 10000 nM; in assay [5], 100 nM; in assay [6], 590 nM; in assay [7] it was 545 nM.
Regarding `Oc1cccc(Nc2nc(Nc3ccc4cn[nH]c4c3)ncc2F)c1` [R935191, 5-Fluoro-N4-(3-hydroxyphenyl)-N2-(indazolin-6-yl)-2,4-pyrimidinediamine], the IC50 in assay [2] was above 10000 nM; in assay [3] it was 68 nM; in assay [8], 71 nM; in assay [6], 213 nM.
Regarding `CNC(=O)COc1cccc(Nc2ncc(F)c(Nc3cccc(-c4nnn[nH]4)c3)n2)c1` [R926855, 5-Fluoro-N2-[3-(N-methylamino)carbonylmethyleneoxyphenyl]-N4-[3-(tetrazol-5-yl)phenyl]-2,4-pyrimidinediamine], the IC50 in assay [2] and in assay [4] was above 10000 nM in each case.
As for `CNC(=O)CCn1ncc2ccc(Nc3nc(Nc4ccc5c(c4)OCCO5)ncc3F)cc21` [R935288, N2-(3,4-Ethylenedioxyphenyl)-5-fluoro-N4-[1-[2(N-methylaminocarbonyl)ethyl]-indazoline-6-yl]-2,4-pyrimidinediamine], the IC50 in assay [2] was above 10000 nM; in assay [4], 1580 nM.
In the same order, the values of `CNC(=O)COc1cccc(Nc2ncc(F)c(Nc3ccc(OC(F)(F)F)c(C(=O)OC)c3)n2)c1` [R950392, N4-(3-Methoxycarbonyl-4-trifluoromethoxyphenyl)-5-fluoro-N2-[3-(N-methylamino)carbonylmethyleneoxyphenyl]-2,4-pyrimidinediamine] are above 10000 nM and 956 nM.
On to `CCOC(=O)CNC(=O)Oc1cccc(Nc2nc(Nc3cccc(OCC(=O)NC)c3)ncc2F)c1` [R926918, N4-[3-[[N-(Ethoxycarbonylmethyl)amino]carbonyloxy]phenyl]-5-fluoro-N2-[3-[(N-methylamino)carbonylmethyleneoxy]phenyl]-2,4-pyrimidinediamine], for which the results for the IC50 in assay [2] and in assay [4] were above 10000 nM and 2520 nM, respectively.
In the same order, the values of `OCCCn1ncc2cc(Nc3ncc(F)c(Nc4cccc(OC(F)(F)F)c4)n3)ccc21` [R935362, 5-Fluoro-N2-[1-(3-hydroxypropyl)indazoline-5-yl]-N4-(3-trifluoromethoxyphenyl)-2,4-pyrimidinediamine] are above 10000 nM and 409 nM.
As to `N#Cc1cnc(Nc2ccc(OCC(=O)NCC(O)CO)cc2)nc1Nc1cccc(O)c1` (stereo not drawn) [R925846, 5-Cyano-N4-(3-hydroxyphenyl)-N2-[4-(N-2,3-dihydroxypropylamino)carbonylmethyleneoxyphenyl]-2,4-pyrimidinediamine], the IC50 in assay [2] and in assay [4] was above 10000 nM throughout.
Turning to `O=[N+]([O-])c1ccc(NCCO)c(Nc2ncc(F)c(Nc3cc([N+](=O)[O-])ccc3NCCO)n2)c1` [R950150, N2,N4-Bis(2-hydroxyethyleneamino-5-nitrophenyl)-5-fluoro-2,4-pyrimidinediamine], the IC50 in assay [2] and in assay [4] was above 10000 nM in each case.
Turning to `COc1cc(-c2ccccc2)c(C)cc1Nc1ncc(C)c(Nc2cc(C)c(-c3ccccc3)cc2OC)n1` [R935003, N2,N4-Bis[(4-phenyl-2-methoxy-5-methyl)phenyl]-5-methyl-2,4-pyrimidinediamine], the IC50 in assay [2] and in assay [4] was above 10000 nM each time.
On to `Cn1ncc2cc(Nc3ncc(F)c(Nc4cccc(O)c4)n3)ccc21` [R935194, 5-Fluoro-N4-(3-hydroxyphenyl)-N2-(1-methy-indazoline-5-yl)-2,4-pyrimidinediamine], for which the IC50 in assay [2] is above 10000 nM; in assay [5], 34 nM; in assay [6], 493 nM; in assay [7] it was 54 nM.
Consider `CN1CCN(C(=O)CNc2cccc(Nc3ncc(F)c(Nc4cccc(NCCO)c4)n3)c2)CC1` [R950240, N4-[3-(2-Hydroxyethyleamino)phenyl]-N2-[3-(N—(N-methyl)-piperazino)carbonylmethyleneaminophenyl]-5-fluoro-2,4-pyrimidinediamine], for which the results for the IC50 in assay [2] and in assay [4] were above 10000 nM and 1770 nM, respectively.
Consider `O=C(CNc1cccc(Nc2ncc(F)c(Nc3cccc(NCCO)c3)n2)c1)N1CCOCC1` [R950236, 5-Fluoro-N4-[3-(2-hydroxyethylamino)phenyl]-N2-[3-(N-morpholino)carbonylmethyleneaminophenyl]-2,4-pyrimidinediamine], for which the IC50 is above 10000 nM in assay [2] and 955 nM in assay [4].
In the same order, the values of `CCOC(=O)c1cnc(Nc2cccc(O)c2)nc1N[C@@H](Cc1ccccc1)C(=O)OCC` [R926528, 5-Ethoxycarbonyl-N2-(3-hydroxyphenyl)-4-[N-(L)-phenylalanineethyl ester]-2-pyrimidineamine] are above 10000 nM and 8750 nM.
For `COC(=O)COc1ccc(Nc2ncc(F)c(Nc3ccc4c(c3)OCCCO4)n2)cc1` [R935182, 5-Fluoro-N2-[4-(methoxycarbonylmethyleneoxy)phenyl]-N4-(3,4-propylenedioxyphenyl)-2,4-pyrimidinediamine], the IC50 in assay [2] is 2470 nM; in assay [4], 124 nM.
Take `O=C(COc1cccc(Nc2ncc(F)c(Nc3ccc4c(c3)OCCO4)n2)c1)N(CCO)CCO` [R926781, N2-[3-[N,N-Bis-(2-hydroxyethylamino)]carbonylmethyleneoxyphenyl]-N4-(3,4-ethylenedioxyphenyl)-5-fluoro-2,4-pyrimidinediamine]: the IC50 in assay [2] was above 10000 nM; in assay [4], 573 nM.
